{"source": "paper PMC3189933", "about": "“Acylpeptide Hydrolase Inhibition as Targeted Strategy to Induce Proteasomal Down-Regulation” (PLoS ONE, 2011)", "key": {"[1]": {"target": "T1, porcine APEH (Sus scrofa, UniProt P19205)", "T1 construct": "mammalian APEHs purified from both porcine liver and human colon carcinoma intestinal cells (Caco-2); purchased Takara; host or cells: porcine liver", "T1 sequence (P19205 1-732)": "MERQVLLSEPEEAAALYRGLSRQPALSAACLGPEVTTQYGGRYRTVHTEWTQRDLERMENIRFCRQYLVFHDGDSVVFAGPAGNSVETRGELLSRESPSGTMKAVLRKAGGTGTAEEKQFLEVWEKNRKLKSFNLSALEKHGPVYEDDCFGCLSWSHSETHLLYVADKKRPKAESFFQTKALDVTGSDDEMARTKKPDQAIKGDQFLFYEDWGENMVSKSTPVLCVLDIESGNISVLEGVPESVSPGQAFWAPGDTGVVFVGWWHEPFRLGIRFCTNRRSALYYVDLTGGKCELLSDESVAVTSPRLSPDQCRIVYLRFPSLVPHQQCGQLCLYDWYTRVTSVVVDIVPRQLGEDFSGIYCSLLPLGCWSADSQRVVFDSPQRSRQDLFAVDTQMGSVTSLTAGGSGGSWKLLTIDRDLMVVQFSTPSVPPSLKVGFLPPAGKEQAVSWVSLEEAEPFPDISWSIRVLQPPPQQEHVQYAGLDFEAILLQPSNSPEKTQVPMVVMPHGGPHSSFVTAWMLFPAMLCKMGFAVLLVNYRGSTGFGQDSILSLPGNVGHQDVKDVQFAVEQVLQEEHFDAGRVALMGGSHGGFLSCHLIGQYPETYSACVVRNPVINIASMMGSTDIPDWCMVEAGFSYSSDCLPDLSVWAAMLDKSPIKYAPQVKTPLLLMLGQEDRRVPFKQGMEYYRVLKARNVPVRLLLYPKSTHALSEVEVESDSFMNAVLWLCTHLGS", "experiment": "Time-dependent inhibition of APEH", "assay_type": "biochemical", "details": "pre-incubation at least 20 min at 37°C, then diluted 1:5 into assay mixture with substrate", "description": "The time-dependent inhibition of SsCEI 4 and t10c12-CLA towards APEH was assessed. Mixtures containing appropriate amounts of each inhibitor and of APEH were pre-incubated for 20 min at 37°C; they were then diluted (1∶5) into the standard assay mixture, which contained the substrate only. The enzymatic activity was followed as described above. Control samples were prepared by pre-incubating the same amounts of APEH without the inhibitors and then diluted in the standard assay mixture."}, "[2]": {"target": "T1, porcine APEH", "experiment": "Inhibition of porcine liver APEH, Ac-Ala-pNA substrate", "assay_type": "biochemical", "description": "(§1) APEH activity was expressed in IU.\n(§2) Protease inhibitor activities of the SsCEI peptides and the CLA isomers were carried out using a fixed amount of APEH or partially purified proteasome (3–5 nM and 0.12 mg/mL, respectively), and increasing the SsCEI and CLA isomer concentrations. Mixtures were pre-incubated for 30 min at 37°C before the addition of the substrate, and the enzymatic activities were followed as described above. Protease inhibitor activities of the SsCEI peptides and the CLA isomers were determined towards APEHSs. The protease and increasing concentrations of the inhibitors were mixed and preincubated for 30 min at 80°C before the addition of the specific substrate. The residual enzymatic activity was determined using the assay procedure described above.\nAll data were obtained from triplicate analyses of three different preparations. Data were presented as means ±S.D. Statistical analysis and IC50 values were calculated with the SigmaPlot 10.0 software through a non-linear curve-fitting method and using a simple binding isotherm equation. Groups were compared by Student's t test, and P<0.05 was considered as significant."}, "[3]": {"tested_on": "p21Waf1 in Caco-2 cells", "experiment": "Immunoblot of p21Waf1 in Caco-2 cells", "assay_type": "cell-based, human", "details": "200 µM alone, 48 h", "excerpt": "(§3) The following antibodies were used: anti-APEH antibody (sc-102311; Santa Cruz Biotechnology); anti-NF-κB/p65 antibody (Thermo Scientific); anti-p21Waf1 antibody (Exbio); pan Ab-5 anti-actin antibody (clone ACTN05, Thermo Scientific); and monoclonal antibodies against polyubiquitinylated proteins conjugated with horseradish peroxidase (FK2H, Enzo, Life Science). The ΔF508CFTR-3HA protein was detected with an anti HA monoclonal antibody (Covance)."}, "[4]": {"tested_on": "proteasome CT-like activity in Caco-2 cells", "experiment": "CT-like proteasome activity in Caco-2 cells", "experimental": "The synthetic fluorescent substrate N-succinyl-Leu-Leu-Val-Tyr-7-amido-4-methylcoumarin (N-Suc-LLVT-AMC) was used for the measurement of the CT-like activity of the proteasome, at a final concentration of 0.080 mM. The reaction mixture (0.9 mL) containing appropriate amount of proteasome was preincubated as above, in Tris buffer. N-Suc-LLVT-AMC was added, and the release of the fluorescent product (7-AMC) was monitored for 5 min in a Perkin–Elmer LS 50B fluorimeter. The excitation and emission wavelengths were 380 nm and 460 nm, respectively.\nCaco-2 cells (ATCC) were cultivated in DMEM supplemented with 10% FBS, 1 mM glutamine and 100 units/mL penicillin-streptomycin at 37°C in a humidified 5% CO2 atmosphere. The cells were studied between passages 12 and 22. The cells were split using trypsin-EDTA solution and plated in 6-well plates at a density of 8×10^4 cells/mL and the medium was replaced every 2–3 days. […]\nFollowing the treatments, the BHK and Caco-2 cells were washed three times with ice cold phosphate-buffered saline and collected immediately at 4°C in lysis buffer (1% Triton X-100, 0.1% SDS, 20 mM Tris-HCl, pH 8.0, 150 mM NaCl, 0.5% sodium deoxycholate and complete protease inhibitors [Roche]). […] The protein concentrations in the clear supernatants were determined (BCA protein assay reagent kit; Pierce) before their use in enzymatic assays or SDS–PAGE."}, "[5]": {"tested_on": "APEH in BHK cells", "experiment": "APEH activity in BHK cells", "assay_type": "cell-based, Baby Hamster", "details": "50 and 100 µM, 48 h", "description": "as §1\n(§4) The cells were plated in 12-well plates, to a confluence of 60% for the 24-h incubations, and 40% for 48-h exposure to PIs. These treatments were initiated 24-h after the plating of the cells. Phase-contrast images of the cells were taken just before the lysis of the cells for protein analysis, using a Lica DM6000 inverted microscope."}, "[6]": {"target": "T2, partially purified proteasome from Caco-2 cells (Homo sapiens, UniProt P28074)", "T2 construct": "a partially purified proteasome fraction from differentiated Caco-2 cells; endogenous in cells; host or cells: Caco-2", "T2 sequence (P28074 60-263)": "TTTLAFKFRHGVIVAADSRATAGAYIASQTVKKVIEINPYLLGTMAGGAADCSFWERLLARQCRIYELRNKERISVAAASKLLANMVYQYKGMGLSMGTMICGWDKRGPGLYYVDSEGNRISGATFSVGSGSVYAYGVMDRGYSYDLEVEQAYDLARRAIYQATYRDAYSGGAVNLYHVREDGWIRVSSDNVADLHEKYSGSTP", "experiment": "CT-like activity of partially purified proteasome from Caco-2 cells (cell-free)", "assay_type": "biochemical", "details": "proteasome 0.12 mg/mL, pre-incubated 30 min at 37°C", "description": "APEH from Sulfolobus solfataricus was purified as previously reported. Partial purification of human APEH and proteasome was carried out from protein extracts of Caco-2 cell. Briefly, protein extracts (500 µg) were fractionated by gel filtration chromatography on a Superdex 200 PC 3.2/30 column connected to a SMART System (Pharmacia) equilibrated in buffer 50 mM Tris-HCl, pH 7.5, 100 mM NaCl, at 0.1 mL/min. The eluted fractions were assayed using the specific substrates for APEH and the proteasome. The active fractions were collected and used for further analysis.\nas §2"}, "[7]": {"tested_on": "polyubiquitinylated proteins in Caco-2 cells", "experiment": "Protein ubiquitinylation in Caco-2 cells (immunoblot)", "assay_type": "cell-based, human", "details": "48 h, 200 µM SsCEI 4 or t10c12-CLA, mixture, 100 µM ebelactone, 10 µM MG132, species 66 kDa to 160 kDa", "excerpt": "as §3"}, "[8]": {"tested_on": "ΔF508 CFTR-3HA (CFTR-M) in BHK cells", "experiment": "CFTR-M accumulation in BHK cells (immunoblot)", "assay_type": "cell-based, Baby Hamster", "details": "100 µM, 24 h, densitometry vs untreated", "description": "as §4"}, "[9]": {"tested_on": "proteasome CT-like activity in BHK cells", "experiment": "CT-like proteasome activity in BHK cells", "assay_type": "cell-based, Baby Hamster", "details": "50 and 100 µM, 48 h", "description": "as §4"}}, "data": [{"smiles": "CCCCC/C=C\\C=C\\CCCCCCCCC(=O)O", "note": "[t10c12-CLA, trans10-cis12 CLA]", "values": [{"measurement": "inhibition of APEH after pre-incubation with the enzyme", "setting": "[1]", "result": 43, "unit": "%"}, {"measurement": "IC50", "setting": "[2]; Ac-Ala-pNA 1 mM, 50 mM Tris-HCl pH 7.5, pre-incubated 30 min at 37°C, mean ± SD, read-out: IC50 towards porcine APEH", "result": "105 ± 23", "unit": "µM"}, {"measurement": "inhibition mechanism towards porcine APEH", "setting": "[2]; Lineweaver-Burk plot", "result": "non–competitive"}, {"measurement": "increase of p21Waf1", "setting": "[3]", "result": "two"}, {"measurement": "reduction in proteasomal CT-like activity", "setting": "[4]; 200 µM, 48 h", "result": 40, "unit": "%"}, {"measurement": "dose-dependent decrease of CT-like proteasome activity in Caco-2 cells", "setting": "[4]; increasing concentrations, printed 'up to 45% of the residual activity' vs untreated", "result": "up to 45%"}, {"measurement": "APEH activity in BHK cells", "setting": "[5]", "result": "dose-dependent inhibition"}, {"measurement": "effect on partially purified proteasome CT-like activity", "setting": "[6]", "result": "not affected"}, {"measurement": "polyubiquitin conjugates in cell extract", "setting": "[7]", "result": "presence of high-molecular-mass immunoreactive species"}, {"measurement": "increase of CFTR-M levels", "setting": "[8]", "result": "five"}, {"measurement": "proteasome CT-like activity in BHK cells", "setting": "[9]", "result": "dose-dependent inhibition"}]}]}
